In patent publication US20240425456A1, “DEGRADER” (ASKA PHARMACEUTICAL CO., LTD., priority 2021, published 2024):

Legend:
Assay type in all cases: cell-based
[1] = molecular target: T1, JAK1 (Homo sapiens, UniProt P23458); experiment: Degradation-inducing effect on JAK in Jurkat cells (chemiluminescent Western blotting), JAK1; details: 1 μmol/L, 6 hours; for JAK protein ratio of Jurkat cells after treatment of each test compound: JAK1: corrected by GAPDH, DMSO as 100%
T1 construct: endogenous in cells; host or cells: Jurkat cells
Experimental: (§1) The degradation-inducing effect of the compound of the present invention on JAK family proteins was evaluated in vitro using Jurkat cells, of which cell line was derived from human leukemic T cells.
(§2) JAK1, JAK2, JAK3, and Tyk2-positive Jurkat cells were seeded at a density of 1×10^5 cells/mL on 10 cm diameter dishes and then cultured in RPMI 1640 medium (FUJIFILM Wako Pure Chemical: catalog number: 189-02025) containing 10% FBS (Thermo Fisher Scientific: catalog number: 10437-028) at 5% CO2 and 37° C. for 3 days. Then, each of the test compounds (compounds of Examples 1 to 11 and Comparative Examples 1 and 2) was added to the dish at a final concentration of 1 μmol/L, and the cells were cultured in the presence of the test compound for 6 hours. After that, the cell culture medium was collected in a 15 mL centrifuge tube (1000 rpm (240× g), room temperature, 5 min), followed by washing with PBS (1000 rpm (240× g), room temperature, 5 min). Then, the cells in the centrifuge tube were collected in a 1.5 mL tube (3000 rpm (860× g), 4° C., 5 min), lysed using RIPA buffer (25 mmol/L Tris-HCl (pH 7.4), 25 mmol/L NaCl, 0.5 mmol/L EGTA (pH 8.0), 0.1% SDS, 1% protease inhibitor), sonicated at ice temperature (cycles of [7.5 sec sonication, 5 sec off] for 5 min) and subjected to centrifugation (15000 rpm (21600× g), 4° C., 30 min). The thus-obtained supernatant was used as the protein solution. Using the BCA protein assay kit (Thermo Fisher Scientific: catalog number: 23225), the protein concentration of the protein solution of each test compound was measured according to the kit instructions, and then adjusted to 1.4 mg/mL with RIPA buffer. The thus-adjusted protein solutions were subjected to a fully automated Western blotting device (Simple Westerns Wes: proteinSimple) to detect the protein levels (JAK1, JAK2, JAK3, and Tyk2 as the target proteins, and GAPDH (Glyceraldehyde 3-phosphate dehydrogenase) as the internal standard protein) in the protein solutions by chemiluminescent Western blotting.
(§3) Furthermore, the luminescence levels of JAK1, JAK2, JAK3, and Tyk2 detected by chemiluminescent Western blotting were quantified numerically by using an analysis software (Compass software for Simple Western (version 4.0.0)) attached to the fully automated Western blotting device. The numerical values of the quantified luminescence levels were corrected by the protein levels of the internal standard protein, i.e., GAPDH, (target protein levels/GAPDH protein levels), and compared among the test compounds with dimethyl sulfoxide (DMSO) as 100%.

[2] = molecular target: T2, JAK2 (Homo sapiens, UniProt O60674); experiment: Degradation-inducing effect on JAK in Jurkat cells (chemiluminescent Western blotting), JAK2; details: 1 μmol/L, 6 hours, corrected by GAPDH, DMSO as 100%
T2 construct: endogenous in cells; host or cells: Jurkat cells
Experimental: as §1, §2, §3

[3] = molecular target: T3, JAK3 (Homo sapiens, UniProt P52333); experiment: Degradation-inducing effect on JAK in Jurkat cells (chemiluminescent Western blotting), JAK3; details: 1 μmol/L, 6 hours, corrected by GAPDH, DMSO as 100%, read-out: JAK protein ratio of Jurkat cells after treatment of each test compound: JAK3
T3 construct: endogenous in cells; host or cells: Jurkat cells
T3 sequence (P52333 1-1124): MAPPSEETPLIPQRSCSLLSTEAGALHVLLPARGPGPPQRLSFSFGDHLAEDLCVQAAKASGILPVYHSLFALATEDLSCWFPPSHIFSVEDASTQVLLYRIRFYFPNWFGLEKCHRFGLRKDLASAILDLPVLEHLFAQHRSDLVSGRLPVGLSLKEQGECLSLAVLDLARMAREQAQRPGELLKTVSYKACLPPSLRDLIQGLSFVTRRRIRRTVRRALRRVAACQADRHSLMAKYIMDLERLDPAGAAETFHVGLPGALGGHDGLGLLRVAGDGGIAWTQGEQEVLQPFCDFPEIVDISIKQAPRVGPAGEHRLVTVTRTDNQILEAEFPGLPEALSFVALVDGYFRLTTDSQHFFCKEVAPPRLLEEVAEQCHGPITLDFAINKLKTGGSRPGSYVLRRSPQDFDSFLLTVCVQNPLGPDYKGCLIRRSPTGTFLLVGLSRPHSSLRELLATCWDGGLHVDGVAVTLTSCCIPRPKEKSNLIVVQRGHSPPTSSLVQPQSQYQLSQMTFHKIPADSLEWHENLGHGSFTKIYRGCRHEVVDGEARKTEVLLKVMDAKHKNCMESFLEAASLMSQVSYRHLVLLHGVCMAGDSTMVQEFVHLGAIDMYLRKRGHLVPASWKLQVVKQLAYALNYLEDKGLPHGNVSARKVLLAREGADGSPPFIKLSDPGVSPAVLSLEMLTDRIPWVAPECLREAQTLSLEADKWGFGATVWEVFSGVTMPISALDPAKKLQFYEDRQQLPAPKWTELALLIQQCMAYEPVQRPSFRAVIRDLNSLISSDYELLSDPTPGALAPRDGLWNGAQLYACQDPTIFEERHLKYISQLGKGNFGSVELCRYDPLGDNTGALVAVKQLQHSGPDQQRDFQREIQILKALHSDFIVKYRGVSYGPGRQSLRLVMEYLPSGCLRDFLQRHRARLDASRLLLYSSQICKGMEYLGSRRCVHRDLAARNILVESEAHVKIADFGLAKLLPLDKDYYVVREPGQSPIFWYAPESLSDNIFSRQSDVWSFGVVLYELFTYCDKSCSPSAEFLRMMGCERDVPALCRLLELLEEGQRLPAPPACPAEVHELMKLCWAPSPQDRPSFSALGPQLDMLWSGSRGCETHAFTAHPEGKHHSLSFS
Experimental: as §1, §2, §3

[4] = molecular target: T4, Tyk2 (Homo sapiens, UniProt P29597); experiment: Degradation-inducing effect on JAK in Jurkat cells (chemiluminescent Western blotting), Tyk2; details: 1 μmol/L, 6 hours; for JAK protein ratio of Jurkat cells after treatment of each test compound: Tyk2: corrected by GAPDH, DMSO as 100%
T4 construct: endogenous in cells; host or cells: Jurkat cells
Experimental: as §1, §2, §3

T2 sequence (O60674 whole entry): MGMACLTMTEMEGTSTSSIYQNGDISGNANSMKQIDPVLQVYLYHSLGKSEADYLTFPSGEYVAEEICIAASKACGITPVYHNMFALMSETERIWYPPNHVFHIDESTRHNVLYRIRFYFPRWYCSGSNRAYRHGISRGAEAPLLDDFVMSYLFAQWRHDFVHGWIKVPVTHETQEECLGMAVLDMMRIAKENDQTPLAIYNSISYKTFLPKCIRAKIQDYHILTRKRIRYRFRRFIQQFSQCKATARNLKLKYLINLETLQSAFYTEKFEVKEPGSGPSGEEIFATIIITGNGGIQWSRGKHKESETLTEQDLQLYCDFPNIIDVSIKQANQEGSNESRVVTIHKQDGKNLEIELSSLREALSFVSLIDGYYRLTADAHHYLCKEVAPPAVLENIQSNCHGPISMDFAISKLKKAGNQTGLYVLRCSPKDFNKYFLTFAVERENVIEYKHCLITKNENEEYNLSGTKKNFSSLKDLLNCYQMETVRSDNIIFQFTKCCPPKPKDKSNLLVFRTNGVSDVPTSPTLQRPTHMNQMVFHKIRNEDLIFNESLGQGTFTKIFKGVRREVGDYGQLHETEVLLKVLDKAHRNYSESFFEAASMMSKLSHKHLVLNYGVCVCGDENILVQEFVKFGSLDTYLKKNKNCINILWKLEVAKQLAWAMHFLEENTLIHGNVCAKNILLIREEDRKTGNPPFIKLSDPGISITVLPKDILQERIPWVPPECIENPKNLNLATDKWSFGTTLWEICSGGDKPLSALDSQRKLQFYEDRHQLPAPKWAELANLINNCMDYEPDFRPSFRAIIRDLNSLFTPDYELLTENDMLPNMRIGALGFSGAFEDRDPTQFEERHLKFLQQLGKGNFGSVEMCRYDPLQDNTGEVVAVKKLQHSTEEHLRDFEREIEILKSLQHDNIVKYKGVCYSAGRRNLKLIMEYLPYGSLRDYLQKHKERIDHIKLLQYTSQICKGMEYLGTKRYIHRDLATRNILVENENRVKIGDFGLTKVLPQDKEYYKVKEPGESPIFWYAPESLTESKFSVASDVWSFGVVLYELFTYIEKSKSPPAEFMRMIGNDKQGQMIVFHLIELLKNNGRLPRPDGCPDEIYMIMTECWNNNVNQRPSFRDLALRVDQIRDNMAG
T4 sequence (P29597 whole entry): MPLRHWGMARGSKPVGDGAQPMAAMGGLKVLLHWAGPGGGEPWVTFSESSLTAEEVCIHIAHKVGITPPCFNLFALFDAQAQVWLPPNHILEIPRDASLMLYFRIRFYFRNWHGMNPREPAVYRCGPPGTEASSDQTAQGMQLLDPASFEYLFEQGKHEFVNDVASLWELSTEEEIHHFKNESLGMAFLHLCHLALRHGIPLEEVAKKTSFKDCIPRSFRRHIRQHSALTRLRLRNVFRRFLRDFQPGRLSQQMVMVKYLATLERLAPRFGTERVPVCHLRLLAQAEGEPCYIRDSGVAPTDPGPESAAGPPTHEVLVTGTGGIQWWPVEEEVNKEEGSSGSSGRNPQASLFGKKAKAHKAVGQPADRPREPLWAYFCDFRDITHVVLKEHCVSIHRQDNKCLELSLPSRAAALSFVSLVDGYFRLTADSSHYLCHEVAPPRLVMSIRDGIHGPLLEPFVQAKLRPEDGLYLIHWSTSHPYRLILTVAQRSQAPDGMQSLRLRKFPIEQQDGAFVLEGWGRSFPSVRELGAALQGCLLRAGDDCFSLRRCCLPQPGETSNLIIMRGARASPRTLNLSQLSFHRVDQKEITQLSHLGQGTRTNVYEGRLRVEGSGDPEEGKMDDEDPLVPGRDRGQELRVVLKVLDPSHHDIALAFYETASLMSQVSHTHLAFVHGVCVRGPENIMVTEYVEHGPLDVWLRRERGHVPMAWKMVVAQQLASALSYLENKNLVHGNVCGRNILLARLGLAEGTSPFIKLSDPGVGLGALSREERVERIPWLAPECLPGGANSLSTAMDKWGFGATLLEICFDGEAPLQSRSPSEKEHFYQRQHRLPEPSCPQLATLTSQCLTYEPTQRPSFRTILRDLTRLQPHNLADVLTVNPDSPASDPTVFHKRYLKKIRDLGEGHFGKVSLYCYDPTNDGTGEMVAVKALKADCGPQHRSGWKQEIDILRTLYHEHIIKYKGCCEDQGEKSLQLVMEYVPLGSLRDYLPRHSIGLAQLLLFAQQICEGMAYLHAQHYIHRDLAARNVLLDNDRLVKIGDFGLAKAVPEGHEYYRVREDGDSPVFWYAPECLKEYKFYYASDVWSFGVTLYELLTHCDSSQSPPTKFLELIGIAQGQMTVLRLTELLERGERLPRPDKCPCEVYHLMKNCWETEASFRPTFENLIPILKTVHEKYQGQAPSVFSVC
T1 sequence (P23458 whole entry): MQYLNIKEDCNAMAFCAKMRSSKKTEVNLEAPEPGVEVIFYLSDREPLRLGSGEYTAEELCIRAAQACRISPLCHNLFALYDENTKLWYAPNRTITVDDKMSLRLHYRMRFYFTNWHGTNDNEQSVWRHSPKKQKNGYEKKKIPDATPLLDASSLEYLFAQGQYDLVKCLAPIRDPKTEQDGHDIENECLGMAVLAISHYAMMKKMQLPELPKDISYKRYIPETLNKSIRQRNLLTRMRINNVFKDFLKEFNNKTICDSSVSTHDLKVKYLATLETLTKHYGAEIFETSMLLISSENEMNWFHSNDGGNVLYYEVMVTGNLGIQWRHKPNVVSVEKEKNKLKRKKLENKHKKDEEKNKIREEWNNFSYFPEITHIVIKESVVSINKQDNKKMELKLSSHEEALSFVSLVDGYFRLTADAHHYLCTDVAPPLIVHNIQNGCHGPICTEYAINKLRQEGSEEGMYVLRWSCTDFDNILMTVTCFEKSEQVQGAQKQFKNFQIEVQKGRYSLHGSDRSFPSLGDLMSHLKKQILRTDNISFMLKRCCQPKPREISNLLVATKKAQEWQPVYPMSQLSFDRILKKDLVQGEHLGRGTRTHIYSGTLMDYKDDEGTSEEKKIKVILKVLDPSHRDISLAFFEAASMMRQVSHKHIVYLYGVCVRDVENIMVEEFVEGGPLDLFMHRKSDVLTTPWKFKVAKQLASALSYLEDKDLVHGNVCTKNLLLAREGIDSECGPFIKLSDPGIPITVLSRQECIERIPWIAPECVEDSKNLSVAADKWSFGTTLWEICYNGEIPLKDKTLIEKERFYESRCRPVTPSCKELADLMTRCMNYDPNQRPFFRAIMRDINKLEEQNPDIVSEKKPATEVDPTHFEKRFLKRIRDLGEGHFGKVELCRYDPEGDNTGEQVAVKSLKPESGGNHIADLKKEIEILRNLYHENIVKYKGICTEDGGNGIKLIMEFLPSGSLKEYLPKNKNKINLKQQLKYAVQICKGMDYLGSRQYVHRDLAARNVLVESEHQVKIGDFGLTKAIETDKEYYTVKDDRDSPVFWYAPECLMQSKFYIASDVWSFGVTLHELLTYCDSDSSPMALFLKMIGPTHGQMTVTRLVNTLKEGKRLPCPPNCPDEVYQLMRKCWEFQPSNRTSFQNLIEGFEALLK

| Structure (SMILES) | JAK protein ratio of Jurkat cells after treatment of each test compound: JAK1 [1] | JAK protein ratio of Jurkat cells after treatment of each test compound: JAK2 [2] | JAK3 protein level relative to DMSO at 1 µM [3] | JAK protein ratio of Jurkat cells after treatment of each test compound: Tyk2 [4] | protein level of Tyk2 (in words) [4] | protein level of JAK1 (in words) [1] |
| --- | --- | --- | --- | --- | --- | --- |
| CNC(=O)c1cnc(Nc2ccc(C(=O)NCCCCCCCCCCC(=O)N[C@H](C(=O)N3C[C@H](O)C[C@H]3C(=O)NCc3ccc(-c4scnc4C)cc3)C(C)(C)C)cn2)cc1Nc1cccc(C(=O)NC)c1OC [Example 6, 6-((5-((11-(((S)-1-((2S,4R)-4-Hydroxy-2-((4-(4-methylthiazol-5-yl)benzyl)carbamoyl)pyrrolidin-1-yl)-3,3-dimethyl-1-oxobutan-2-yl)amino)-11-oxoundecyl)carbamoyl)pyridin-2-yl)amino)-4-((2-methoxy-3-(methylcarbamoyl)phenyl)amino)-N-methylnicotinamide] | 113.2% | 139.8% | 122% | 30.3% | – | – |
| CNC(=O)c1cnc(Nc2ccc(C(=O)NCCCCCCCCCCCC(=O)N[C@H](C(=O)N3C[C@H](O)C[C@H]3C(=O)NCc3ccc(-c4scnc4C)cc3)C(C)(C)C)cn2)cc1Nc1cccc(C(=O)NC)c1OC [Example 7, 6-((5-((12-(((S)-1-((2S,4R)-4-Hydroxy-2-((4-(4-methylthiazol-5-yl)benzyl)carbamoyl)pyrrolidin-1-yl)-3,3-dimethyl-1-oxobutan-2-yl)amino)-12-oxododecyl)carbamoyl)pyridin-2-yl)amino)-4-((2-methoxy-3-(methylcarbamoyl)phenyl)amino)-N-methylnicotinamide] | 112.1% | 108.2% | 112% | 47.1% | – | – |
| CNC(=O)c1cnc(Nc2ccc(C(=O)NCCCCCCCCCC(=O)N[C@H](C(=O)N3C[C@H](O)C[C@H]3C(=O)NCc3ccc(-c4scnc4C)cc3)C(C)(C)C)cn2)cc1Nc1cccc(C(=O)NCCO)c1OC [Example 11, 6-((5-((10-(((S)-1-((2S,4R)-4-hydroxy-2-((4-(4-methylthiazol-5-yl)benzyl)carbamoyl)pyrrolidin-1-yl)-3,3-dimethyl-1-oxobutan-2-yl)amino)-10-oxodecyl)carbamoyl)pyridin-2-yl)amino)-4-((3-((2-hydroxyethyl)carbamoyl)-2-methoxyphenyl)amino)-N-methylnicotinamide] | 114.4% | 132.2% | 103% | 55.1% | – | – |

Next, values leading:

| JAK protein ratio of Jurkat cells after treatment of each test compound: JAK1 [1] | JAK protein ratio of Jurkat cells after treatment of each test compound: JAK2 [2] | JAK3 protein level relative to DMSO at 1 µM [3] | JAK protein ratio of Jurkat cells after treatment of each test compound: Tyk2 [4] | protein level of Tyk2 (in words) [4] | protein level of JAK1 (in words) [1] | Structure (SMILES) |
| --- | --- | --- | --- | --- | --- | --- |
| 102.6% | 122.5% | 99% | 97.0% | not reduced | – | CNC(=O)c1cnc(Nc2ccc(C(=O)NCCCCCCCCCC(=O)N[C@H](C(=O)N3C[C@@H](O)C[C@H]3C(=O)NCc3ccc(-c4scnc4C)cc3)C(C)(C)C)cn2)cc1Nc1cccc(C(=O)NC)c1OC [Example 8, 6-((5-((10-(((S)-1-((2S,4S)-4-Hydroxy-2-((4-(4-methylthiazol-5-yl)benzyl)carbamoyl)pyrrolidin-1-yl)-3,3-dimethyl-1-oxobutan-2-yl)amino)-10-oxodecyl)carbamoyl)pyridin-2-yl)amino)-4-((2-methoxy-3-(methylcarbamoyl)phenyl)amino)-N-methylnicotinamide] |
| 57.6% | 115.9% | 99.3% | 15.4% | – | reduced | CNC(=O)c1cccc(Nc2cc(Nc3ccc(C(=O)NCCCCCCCCCC(=O)N[C@H](C(=O)N4C[C@H](O)C[C@H]4C(=O)NCc4ccc(-c5scnc5C)cc4)C(C)(C)C)cn3)ncc2C(N)=O)c1OC [Example 9, 6-((5-Carbamoyl-4-((2-methoxy-3-(methylcarbamoyl)phenyl)amino)pyridin-2-yl)amino)-N-(10-(((S)-1-((2S,4R)-4-hydroxy-2-((4-(4-methylthiazol-5-yl)benzyl)carbamoyl)pyrrolidin-1-yl)-3,3-dimethyl-1-oxobutan-2-yl)amino)-10-oxodecyl) nicotinamide] |
| 90.5% | 114.1% | 111% | 31.2% | – | – | CNC(=O)c1cnc(Nc2ccc(C(=O)NCCCCCCCCCC(=O)N[C@H](C(=O)N3C[C@H](O)C[C@H]3C(=O)NCc3ccc(-c4scnc4C)cc3)C(C)(C)C)cn2)cc1Nc1cccc(-c2ncn(C)n2)c1OC [Example 10, 6-((5-((10-(((S)-1-((2S,4R)-4-hydroxy-2-((4-(4-methylthiazol-5-yl)benzyl)carbamoyl)pyrrolidin-1-yl)-3,3-dimethyl-1-oxobutan-2-yl)amino)-10-oxodecyl)carbamoyl)pyridin-2-yl)amino)-4-((2-methoxy-3-(1-methyl-^1H-1,2,4-triazol-3-yl)phenyl)amino)-N-methylnicotinamide] |
